Test results taken from patent US20230085307A1, “PYRIDAZINONE COMPOUND AND HERBICIDE” (NISSAN CHEMICAL CORPORATION, priority 2019, published 2023).

Columns and labels:
blackgrass [1] = assay: Test Example 5: herbicidal effect by foliage application, plastic box (Table 20, symbol J); type: in vivo, blackgrass (Alopecurus myosuroides); conditions: foliage application, three weeks after application
Summary of the method: (§1)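 Foliar spray test: emulsion formulation diluted in water to a set application rate, sprayed onto 14-day-old plants raised in diluvial soil at 25° C to 30° C under glass. Both herbicidal effect and crop effect rated visually three weeks later.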

barnyard grass [2] = assay: Test Example 4: herbicidal effect by soil treatment (Table 19, symbol H); type: in vivo, barnyard grass (Echinochloa crus-galli)
Summary of the method: (§2)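 Herbicidal effect was rated 3 weeks after treatment, using the scoring criteria of an earlier test. The compound, formulated as an emulsion and diluted in water to a set herbicide amount, had been sprayed uniformly on soil over freshly sown seeds. Growth took place in a greenhouse at 25° C. to 30° C.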

chickweed [3] = assay: Test Example 4: herbicidal effect by soil treatment (Table 19, symbol P); type: in vivo, common chickweed (Stellaria media)
Summary of the method: as §2

chickweed [4] = assay: Test Example 5: herbicidal effect by foliage application, plastic box (Table 20, symbol P); type: in vivo, common chickweed (Stellaria media); conditions: foliage application, three weeks after application
Summary of the method: as §1

Italian ryegrass [5] = assay: Test Example 5: herbicidal effect by foliage application, plastic box (Table 20, symbol K); type: in vivo, Italian ryegrass (Lolium multiflorum); conditions: foliage application, three weeks after application
Summary of the method: as §1

wild oat = assay: Test Example 4: herbicidal effect by soil treatment (Table 19, symbol I); type: in vivo, wild oat (Avena fatua)
Summary of the method: as §2

Japanese bulrush = assay: Test Example 2: herbicidal activity, application during weed generation under submerged conditions (Table 17, symbol B); type: in vivo, Japanese bulrush (Schoenoplectus juncoides); conditions: application during weed generation, submerged conditions
Summary of the method: (§3)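 Wagner pot, alluvial soil, 4 cm flood; mixed sowing of all species; greenhouse 25° C.–30° C. Emulsifiable formulation, water-diluted to predetermined dose, applied to paddy water at 1–2 leaf stage. Effect rated at 3 wk using the earlier test's scoring criteria.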

blackgrass [6] = assay: Test Example 4: herbicidal effect by soil treatment (Table 19, symbol J); type: in vivo, blackgrass (Alopecurus myosuroides)
Summary of the method: as §2

velvetleaf [7] = assay: Test Example 5: herbicidal effect by foliage application, plastic box (Table 20, symbol M); type: in vivo, velvetleaf (Abutilon theophrasti); conditions: foliage application, three weeks after application
Summary of the method: as §1

Italian ryegrass [8] = assay: Test Example 4: herbicidal effect by soil treatment (Table 19, symbol K); type: in vivo, Italian ryegrass (Lolium multiflorum)
Summary of the method: as §2

lambsquarters = assay: Test Example 4: herbicidal effect by soil treatment (Table 19, symbol O); type: in vivo, lambsquarters (Chenopodium album)
Summary of the method: as §2

persian speedwell = assay: Test Example 5: herbicidal effect by foliage application, plastic box (Table 20, symbol R); type: in vivo, Persian speedwell (Veronica persica); conditions: foliage application, three weeks after application
Summary of the method: as §1

late watergrass = assay: Test Example 2: herbicidal activity, application during weed generation under submerged conditions (Table 17, symbol A); type: in vivo, late watergrass (Echinochloa oryzicola); conditions: application during weed generation, submerged conditions
Summary of the method: as §3

barnyard grass [9] = assay: Test Example 3: herbicidal effect by foliage application, Wagner pot (Table 18, symbol H); type: in vivo, barnyard grass (Echinochloa crus-galli)
Summary of the method: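 Plants were sown in alluvial soil held under 0.1–0.5 cm standing water and grown 14 days in a greenhouse at 25–30 °C. An emulsifiable formulation, water-diluted to the set dose, was then sprayed onto the foliage, and effects were scored three weeks later using previously defined criteria.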

redroot pigweed = assay: Test Example 5: herbicidal effect by foliage application, plastic box (Table 20, symbol N); type: in vivo, redroot pigweed (Amaranthus retroflexus); conditions: foliage application, three weeks after application
Summary of the method: as §1

green foxtail = assay: Test Example 4: herbicidal effect by soil treatment (Table 19, symbol G); type: in vivo, green foxtail (Setaria viridis)
Summary of the method: as §2

velvetleaf [10] = assay: Test Example 4: herbicidal effect by soil treatment (Table 19, symbol M); type: in vivo, velvetleaf (Abutilon theophrasti)
Summary of the method: as §2

[11] = amount of applied herbicide 320 g/ha
[12] = amount of applied herbicide 224 g/ha
[13] = amount of applied herbicide 304 g/ha

Structure (SMILES) | J: blackgrass, herbicidal effect grade (blackgrass [1]; 320 g/ha) | H: barnyard grass, herbicidal effect grade (barnyard grass [2]; [11]) | P: chickweed, herbicidal effect grade (chickweed [3]; [11]) | P: chickweed, herbicidal effect grade (chickweed [4]; 320 g/ha) | K: Italian ryegrass, herbicidal effect grade (Italian ryegrass [5]; 320 g/ha) | I: wild oat, herbicidal effect grade (wild oat; [11]) | herbicidal effect rating, B: Japanese bulrush (Japanese bulrush; AAH 320 g/ha) | J: blackgrass, herbicidal effect grade (blackgrass [6]; [11]) | M: velvetleaf, herbicidal effect grade (velvetleaf [7]; 320 g/ha) | K: Italian ryegrass, herbicidal effect grade (Italian ryegrass [8]; [11]) | O: lambsquarters, herbicidal effect grade (lambsquarters; [11]) | R: persian speedwell, herbicidal effect grade (persian speedwell; 320 g/ha) | herbicidal effect rating, A: late watergrass (late watergrass; AAH 320 g/ha) | herbicidal effect on barnyard grass (H) (barnyard grass [9]; 320 g/ha) | N: redroot pigweed, herbicidal effect grade (redroot pigweed; 320 g/ha) | G: green foxtail, herbicidal effect grade (green foxtail; [11]) | M: velvetleaf, herbicidal effect grade (velvetleaf [10]; [11]) | further results
CCOc1cc(F)ccc1-c1sc2cc(Cl)ccc2c1-c1c(O)c(C)nn(C)c1=O [3-045] | 4 (Herbicidal rate of 70% or more and less than 90%) | 5 (Herbicidal rate of 90% or more (almost completely withered)) | 4 (Herbicidal rate of 70% or more and less than 90%) | 5 (Herbicidal rate of 90% or more (almost completely withered)) | 0 (Herbicidal rate of 5% or less (almost no effect)) | 0 (Herbicidal rate of 5% or less (almost no effect)) | 2 (Herbicidal rate of 20% or more and less than 40%) | 3 (Herbicidal rate of 40% or more and less than 70%) | 5 (Herbicidal rate of 90% or more (almost completely withered)) | 0 (Herbicidal rate of 5% or less (almost no effect)) | 4 (Herbicidal rate of 70% or more and less than 90%) | 5 (Herbicidal rate of 90% or more (almost completely withered)) | 2 (Herbicidal rate of 20% or more and less than 40%) | 5 (Herbicidal rate of 90% or more (almost completely withered)) | 4 (Herbicidal rate of 70% or more and less than 90%) | 4 (Herbicidal rate of 70% or more and less than 90%) | 2 (Herbicidal rate of 20% or more and less than 40%) | 
CCCC(=O)Oc1c(C)nn(C)c(=O)c1-c1c(-c2ccccc2OC)sc2cc(C)ccc12 [3-050] |  |  |  |  |  |  |  |  |  |  |  |  |  |  |  |  |  | J: blackgrass, herbicidal effect grade (blackgrass [1]; 224 g/ha): 4 (Herbicidal rate of 70% or more and less than 90%); H: barnyard grass, herbicidal effect grade (barnyard grass [2]; [12]): 0 (Herbicidal rate of 5% or less (almost no effect)); P: chickweed, herbicidal effect grade (chickweed [3]; [12]): 3 (Herbicidal rate of 40% or more and less than 70%); P: chickweed, herbicidal effect grade (chickweed [4]; 224 g/ha): 5 (Herbicidal rate of 90% or more (almost completely withered)); K: Italian ryegrass, herbicidal effect grade (Italian ryegrass [5]; 224 g/ha): 4 (Herbicidal rate of 70% or more and less than 90%); I: wild oat, herbicidal effect grade (wild oat; [12]): 0 (Herbicidal rate of 5% or less (almost no effect)); herbicidal effect rating, B: Japanese bulrush (Japanese bulrush; AAH 224 g/ha): 1 (Herbicidal rate of 5% or more and less than 20%); J: blackgrass, herbicidal effect grade (blackgrass [6]; [12]): 0 (Herbicidal rate of 5% or less (almost no effect)); M: velvetleaf, herbicidal effect grade (velvetleaf [7]; 224 g/ha): 4 (Herbicidal rate of 70% or more and less than 90%); K: Italian ryegrass, herbicidal effect grade (Italian ryegrass [8]; [12]): 1 (Herbicidal rate of 5% or more and less than 20%); O: lambsquarters, herbicidal effect grade (lambsquarters; [12]): 0 (Herbicidal rate of 5% or less (almost no effect)); R: persian speedwell, herbicidal effect grade (persian speedwell; 224 g/ha): 5 (Herbicidal rate of 90% or more (almost completely withered)); herbicidal effect rating, A: late watergrass (late watergrass; AAH 224 g/ha): 0 (Herbicidal rate of 5% or less (almost no effect)); herbicidal effect on barnyard grass (H) (barnyard grass [9]; 224 g/ha): 4 (Herbicidal rate of 70% or more and less than 90%); N: redroot pigweed, herbicidal effect grade (redroot pigweed; 224 g/ha): 4 (Herbicidal rate of 70% or more and less than 90%); G: green foxtail, herbicidal effect grade (green foxtail; [12]): 0 (Herbicidal rate of 5% or less (almost no effect)); M: velvetleaf, herbicidal effect grade (velvetleaf [10]; [12]): 0 (Herbicidal rate of 5% or less (almost no effect))
CCCC(=O)Oc1c(C)nn(C)c(=O)c1-c1c(-c2ccccc2OCC)sc2cc(C)ccc12 [3-054] |  |  |  |  |  |  |  |  |  |  |  |  |  |  |  |  |  | J: blackgrass, herbicidal effect grade (blackgrass [1]; 304 g/ha): 4 (Herbicidal rate of 70% or more and less than 90%); H: barnyard grass, herbicidal effect grade (barnyard grass [2]; [13]): 0 (Herbicidal rate of 5% or less (almost no effect)); P: chickweed, herbicidal effect grade (chickweed [3]; [13]): 3 (Herbicidal rate of 40% or more and less than 70%); P: chickweed, herbicidal effect grade (chickweed [4]; 304 g/ha): 5 (Herbicidal rate of 90% or more (almost completely withered)); K: Italian ryegrass, herbicidal effect grade (Italian ryegrass [5]; 304 g/ha): 5 (Herbicidal rate of 90% or more (almost completely withered)); I: wild oat, herbicidal effect grade (wild oat; [13]): 1 (Herbicidal rate of 5% or more and less than 20%); herbicidal effect rating, B: Japanese bulrush (Japanese bulrush; AAH 304 g/ha): 3 (Herbicidal rate of 40% or more and less than 70%); J: blackgrass, herbicidal effect grade (blackgrass [6]; [13]): 3 (Herbicidal rate of 40% or more and less than 70%); M: velvetleaf, herbicidal effect grade (velvetleaf [7]; 304 g/ha): 4 (Herbicidal rate of 70% or more and less than 90%); K: Italian ryegrass, herbicidal effect grade (Italian ryegrass [8]; [13]): 3 (Herbicidal rate of 40% or more and less than 70%); O: lambsquarters, herbicidal effect grade (lambsquarters; [13]): 0 (Herbicidal rate of 5% or less (almost no effect)); R: persian speedwell, herbicidal effect grade (persian speedwell; 304 g/ha): 5 (Herbicidal rate of 90% or more (almost completely withered)); herbicidal effect rating, A: late watergrass (late watergrass; AAH 304 g/ha): 2 (Herbicidal rate of 20% or more and less than 40%); herbicidal effect on barnyard grass (H) (barnyard grass [9]; 304 g/ha): 5 (Herbicidal rate of 90% or more (almost completely withered)); N: redroot pigweed, herbicidal effect grade (redroot pigweed; 304 g/ha): 5 (Herbicidal rate of 90% or more (almost completely withered)); G: green foxtail, herbicidal effect grade (green foxtail; [13]): 3 (Herbicidal rate of 40% or more and less than 70%); M: velvetleaf, herbicidal effect grade (velvetleaf [10]; [13]): 0 (Herbicidal rate of 5% or less (almost no effect))
COc1cc(F)ccc1-c1sc2cc(C)ccc2c1-c1c(O)c(C)nn(C)c1=O [3-055] | 5 (Herbicidal rate of 90% or more (almost completely withered)) | 0 (Herbicidal rate of 5% or less (almost no effect)) | 4 (Herbicidal rate of 70% or more and less than 90%) | 5 (Herbicidal rate of 90% or more (almost completely withered)) | 5 (Herbicidal rate of 90% or more (almost completely withered)) | 3 (Herbicidal rate of 40% or more and less than 70%) | 1 (Herbicidal rate of 5% or more and less than 20%) | 2 (Herbicidal rate of 20% or more and less than 40%) | 5 (Herbicidal rate of 90% or more (almost completely withered)) | 0 (Herbicidal rate of 5% or less (almost no effect)) | 0 (Herbicidal rate of 5% or less (almost no effect)) | 5 (Herbicidal rate of 90% or more (almost completely withered)) | 1 (Herbicidal rate of 5% or more and less than 20%) | 5 (Herbicidal rate of 90% or more (almost completely withered)) | 5 (Herbicidal rate of 90% or more (almost completely withered)) | 0 (Herbicidal rate of 5% or less (almost no effect)) | 0 (Herbicidal rate of 5% or less (almost no effect)) | 
